Test results: PubChem BioAssay (NCI)
Where “and” joins values, the source holds several entries; their conditions need not be identical. Identical values can stand only once.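 Following 48 hours of exposure in 96-well plates, responses at five concentrations were used to interpolate endpoints linearly. At the GI50, growth is halved. TGI denotes the concentration required for complete inhibition of growth.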

How the values were obtained:
Experiment in all cases: growth of human tumour cells (NCI), 48 h
KM12 colon = tested on: KM12 colon
PC-3 prostate = tested on: PC-3 prostate
M14 melanoma = tested on: M14 melanoma
SF-539 CNS = tested on: SF-539 CNS
LOX IMVI melanoma = tested on: LOX IMVI melanoma
NCI-H460 lung = tested on: NCI-H460 lung
RPMI-8226 leukemia = tested on: RPMI-8226 leukemia
EKVX NSCLC = tested on: EKVX NSCLC
BT-549 breast = tested on: BT-549 breast
SW-620 colon = tested on: SW-620 colon
SNB-75 CNS = tested on: SNB-75 CNS
OVCAR-3 ovarian = tested on: OVCAR-3 ovarian
SK-MEL-5 melanoma = tested on: SK-MEL-5 melanoma
A549 NSCLC = tested on: A549 NSCLC
T-47D breast = tested on: T-47D breast
UO-31 renal = tested on: UO-31 renal
NCI-H226 lung = tested on: NCI-H226 lung
MDA-MB-435 = tested on: MDA-MB-435
K-562 leukemia = tested on: K-562 leukemia
NCI-H522 lung = tested on: NCI-H522 lung
ACHN renal = tested on: ACHN renal
SN12C renal = tested on: SN12C renal
OVCAR-4 ovarian = tested on: OVCAR-4 ovarian
MALME-3M melanoma = tested on: MALME-3M melanoma
HCC-2998 colon = tested on: HCC-2998 colon
MOLT-4 leukemia = tested on: MOLT-4 leukemia
OVCAR-8 ovarian = tested on: OVCAR-8 ovarian
SNB-19 CNS = tested on: SNB-19 CNS
NCI/ADR-RES ovarian = tested on: NCI/ADR-RES ovarian
MCF7 breast = tested on: MCF7 breast
SK-MEL-2 melanoma = tested on: SK-MEL-2 melanoma
HS 578T breast = tested on: HS 578T breast
CCRF-CEM leukemia = tested on: CCRF-CEM leukemia
HOP-92 NSCLC = tested on: HOP-92 NSCLC
DU-145 prostate = tested on: DU-145 prostate
UACC-257 melanoma = tested on: UACC-257 melanoma
HL-60(TB) leukemia = tested on: HL-60(TB) leukemia
NCI-H23 lung = tested on: NCI-H23 lung
TK-10 renal = tested on: TK-10 renal
COLO 205 colon = tested on: COLO 205 colon
RXF 393 renal = tested on: RXF 393 renal
SF-268 CNS = tested on: SF-268 CNS
SR leukemia = tested on: SR leukemia
IGROV1 ovarian = tested on: IGROV1 ovarian
CAKI-1 renal = tested on: CAKI-1 renal
HT29 colon = tested on: HT29 colon
A498 renal = tested on: A498 renal
UACC-62 melanoma = tested on: UACC-62 melanoma
HCT-116 colon = tested on: HCT-116 colon
OVCAR-5 ovarian = tested on: OVCAR-5 ovarian
786-0 renal = tested on: 786-0 renal
MDA-MB-231 breast = tested on: MDA-MB-231 breast
SK-OV-3 ovarian = tested on: SK-OV-3 ovarian
SK-MEL-28 melanoma = tested on: SK-MEL-28 melanoma
SF-295 CNS = tested on: SF-295 CNS
U251 CNS = tested on: U251 CNS
HCT-15 colon = tested on: HCT-15 colon
HOP-62 NSCLC = tested on: HOP-62 NSCLC

CC(=O)Oc1cc2c(OC(C)=O)c(-c3c(C)cc4c(C(C)C)c(OC(C)=O)c(OC(C)=O)cc4c3OC(C)=O)c(C)cc2c(C(C)C)c1OC(C)=O
GI50 (KM12 colon): 4.83 µM and 5.02 µM and 9.12 µM
TGI (KM12 colon): 10.6 µM and 10.2 µM and 21.3 µM
GI50 (PC-3 prostate): 5.48 µM and 5.87 µM and 9.87 µM
TGI (PC-3 prostate): 10.9 µM and 12.1 µM and 23.2 µM
GI50 (M14 melanoma): 6.75 µM and 5.89 µM and 8.15 µM
TGI (M14 melanoma): 18.5 µM and 12.5 µM and 19.3 µM
GI50 (SF-539 CNS): 6.52 µM and 5.37 µM and 12.5 µM
TGI (SF-539 CNS): 12.5 µM and 10.5 µM and 31.3 µM
GI50 (LOX IMVI melanoma): 4.4 µM and 5.26 µM and 17.3 µM
TGI (LOX IMVI melanoma): 8.52 µM and 11.3 µM and 32 µM
GI50 (NCI-H460 lung): 6.16 µM and 6.95 µM and 11.6 µM
TGI (NCI-H460 lung): 15.3 µM and 17.5 µM and 32.3 µM
GI50 (RPMI-8226 leukemia): 5.36 µM and 5.79 µM and 7.94 µM
TGI (RPMI-8226 leukemia): 14 µM and 15.4 µM and 20.4 µM
GI50 (EKVX NSCLC): 4.82 µM and 4.81 µM and 9.21 µM
TGI (EKVX NSCLC): 10.6 µM and 9.92 µM and 26.7 µM
GI50 (BT-549 breast): 4.07 µM and 5.16 µM and 9.94 µM
TGI (BT-549 breast): 9.05 µM and 10.2 µM and 26.6 µM
GI50 (SW-620 colon): 19.6 µM and 4.74 µM and 9.38 µM
TGI (SW-620 colon): 43.7 µM and 9.61 µM and 22.5 µM
GI50 (SNB-75 CNS): 2.32 µM and 13.7 µM and 16.3 µM
TGI (SNB-75 CNS): 24.9 µM and > 52.7 µM and 62.8 µM
GI50 (OVCAR-3 ovarian): 4.6 µM and 6.15 µM and 8.52 µM
TGI (OVCAR-3 ovarian): 13.1 µM and 11.5 µM and 21 µM
GI50 (SK-MEL-5 melanoma): 17.4 µM and 4.66 µM and 7.79 µM
TGI (SK-MEL-5 melanoma): 33.2 µM and 9 µM and 17 µM
GI50 (A549 NSCLC): 14.7 µM and 5.12 µM and 9.61 µM
TGI (A549 NSCLC): 30.7 µM and 9.92 µM and 22.2 µM
GI50 (T-47D breast): > 100 µM and 10.2 µM and 19.1 µM
TGI (T-47D breast): > 100 µM and > 25.2 µM and 36.1 µM
GI50 (UO-31 renal): 5.73 µM and 5.67 µM and 11.8 µM
TGI (UO-31 renal): 13.3 µM and 11.9 µM and 33.8 µM
GI50 (NCI-H226 lung): 1.14 µM and 4.72 µM and 8.69 µM
TGI (NCI-H226 lung): 2.58 µM and 11.1 µM and 20.9 µM
GI50 (MDA-MB-435): 8.13 µM and 6.8 µM and 10.1 µM
TGI (MDA-MB-435): 26.8 µM and 14.1 µM and 22.7 µM
GI50 (K-562 leukemia): 21.3 µM and 6.13 µM and 9.67 µM
TGI (K-562 leukemia): 63.1 µM and > 21.4 µM and 25.8 µM
GI50 (NCI-H522 lung): 5.15 µM and 1.52 µM and 5.49 µM
TGI (NCI-H522 lung): 10.5 µM and 3.23 µM and 11.5 µM
GI50 (ACHN renal): 5.56 µM and 4.86 µM and 8.79 µM
TGI (ACHN renal): 13.2 µM and 11.6 µM and 22.8 µM
GI50 (SN12C renal): 1.21 µM and 1.22 µM and 6.11 µM
TGI (SN12C renal): 2.44 µM and 8.04 µM and 12.8 µM
TGI (OVCAR-4 ovarian): 32 µM and > 69.6 µM and > 84.2 µM
GI50 (MALME-3M melanoma): 5.49 µM and 5.36 µM and 9.03 µM
TGI (MALME-3M melanoma): 13.8 µM and 13.7 µM and 23.7 µM
GI50 (HCC-2998 colon): 4.23 µM and 5.12 µM and 18.4 µM
TGI (HCC-2998 colon): 8.3 µM and 9.51 µM and 34.3 µM
GI50 (MOLT-4 leukemia): 4.48 µM and 23.6 µM and 6.76 µM
TGI (MOLT-4 leukemia): 14.9 µM and > 100 µM and 21.2 µM
GI50 (OVCAR-8 ovarian): 6.44 µM and 5.89 µM and 11.8 µM
TGI (OVCAR-8 ovarian): 19.1 µM and 17.6 µM and > 57.6 µM
GI50 (SNB-19 CNS): 15.3 µM and 8.77 µM and 19.6 µM
TGI (SNB-19 CNS): > 31.7 µM and 25.2 µM and 47.5 µM
GI50 (NCI/ADR-RES ovarian): 7.87 µM and 8.95 µM and 20 µM
TGI (NCI/ADR-RES ovarian): 33.1 µM and 32.7 µM and > 55.3 µM
GI50 (MCF7 breast): 6.42 µM and 7.03 µM and 10.3 µM
TGI (MCF7 breast): 19.5 µM and 21.5 µM and 27.1 µM
GI50 (SK-MEL-2 melanoma): 7.83 µM and 10.8 µM
TGI (SK-MEL-2 melanoma): 31.8 µM
GI50 (HS 578T breast): 18.7 µM and 20.1 µM and 8.85 µM
TGI (HS 578T breast): 49.8 µM and 55.2 µM and 21.6 µM
GI50 (CCRF-CEM leukemia): 0.707 µM and 5.41 µM and 5.98 µM
TGI (CCRF-CEM leukemia): 4.04 µM and 15.6 µM and 20.7 µM
GI50 (HOP-92 NSCLC): 1.27 µM and 7.69 µM and 5.33 µM
TGI (HOP-92 NSCLC): 4.11 µM and 18 µM and 16.7 µM
GI50 (DU-145 prostate): 5.3 µM and 5.17 µM and 9.94 µM
TGI (DU-145 prostate): 11.1 µM and 10.2 µM and 23.6 µM
GI50 (UACC-257 melanoma): 5.23 µM and 2.58 µM and 8.39 µM
TGI (UACC-257 melanoma): 14.4 µM and 10.5 µM and 25.6 µM
GI50 (HL-60(TB) leukemia): 13.1 µM and 3.07 µM and 4.8 µM
TGI (HL-60(TB) leukemia): 33.2 µM and 9.99 µM and 16.2 µM
GI50 (NCI-H23 lung): 5.06 µM and 5.46 µM and 8.84 µM
TGI (NCI-H23 lung): 9.63 µM and 9.93 µM and 19.1 µM
GI50 (TK-10 renal): 7.37 µM and 5.6 µM and 16.2 µM
TGI (TK-10 renal): 21.9 µM and 17.4 µM and > 42.8 µM
GI50 (COLO 205 colon): 9.61 µM and 5.5 µM and 10.1 µM
TGI (COLO 205 colon): 13 µM and 21.3 µM
GI50 (RXF 393 renal): 14 µM and 16.3 µM and 4.05 µM
TGI (RXF 393 renal): 30.6 µM and 34.5 µM and 14.9 µM
GI50 (SF-268 CNS): 6.91 µM and 7.21 µM and 11.7 µM
TGI (SF-268 CNS): 39.7 µM and 29 µM and 37.4 µM
GI50 (SR leukemia): 28.3 µM and 6.93 µM
TGI (SR leukemia): > 100 µM and 21.4 µM
GI50 (IGROV1 ovarian): 16.2 µM and 3.27 µM and 25.8 µM
TGI (IGROV1 ovarian): 33.9 µM and 9.86 µM and 57.5 µM
GI50 (CAKI-1 renal): 7.61 µM and 6.16 µM and 11.5 µM
TGI (CAKI-1 renal): 21.9 µM and 13.1 µM and 30.9 µM
TGI (HT29 colon): 40.2 µM and > 74.8 µM and 62.7 µM
GI50 (A498 renal): 4.91 µM and 4.51 µM and 11.5 µM
TGI (A498 renal): 10 µM and 11.7 µM and 37.3 µM
GI50 (UACC-62 melanoma): 1.03 µM and 4.38 µM and 5.54 µM
TGI (UACC-62 melanoma): 2.2 µM and 8.65 µM and 11.7 µM
GI50 (HCT-116 colon): 6.22 µM and 6.63 µM and 7.46 µM
TGI (HCT-116 colon): 14.3 µM and 15.9 µM and 14.4 µM
GI50 (OVCAR-5 ovarian): 5.86 µM and 5.87 µM and 9.81 µM
TGI (OVCAR-5 ovarian): 13.6 µM and 12.9 µM and 25 µM
GI50 (786-0 renal): 7.26 µM and 6.91 µM and 11.4 µM
TGI (786-0 renal): 20.8 µM and 16.5 µM and 35.4 µM
GI50 (MDA-MB-231 breast): 0.67 µM and 1.58 µM and 3.63 µM
TGI (MDA-MB-231 breast): 2.08 µM and 7.6 µM and 12.4 µM
GI50 (SK-OV-3 ovarian): 10.4 µM and 25.3 µM
TGI (SK-OV-3 ovarian): > 39.3 µM and 34.1 µM and 55.8 µM
GI50 (SK-MEL-28 melanoma): 5.12 µM and 15.3 µM and 18.8 µM
TGI (SK-MEL-28 melanoma): 12.4 µM and 35.1 µM and 41.1 µM
GI50 (SF-295 CNS): 8.78 µM and 5.99 µM and 10.7 µM
TGI (SF-295 CNS): 26.7 µM and 12.5 µM and 30.6 µM
GI50 (U251 CNS): 4.84 µM and 4.85 µM and 9.43 µM
TGI (U251 CNS): 9.38 µM and 24.7 µM and 35.7 µM
GI50 (HCT-15 colon): 4.94 µM and 5.21 µM and 7.97 µM
TGI (HCT-15 colon): 9.98 µM and 10.5 µM and 18.2 µM
GI50 (HOP-62 NSCLC): 6.67 µM and 5.17 µM and 8.71 µM
TGI (HOP-62 NSCLC): 18.8 µM and 11.7 µM and 24.1 µM
